Assay results as given in the supplement of paper PMC10331698.
± gives the standard deviation of the averaged measurements.

Tests used:
Assay in all cases: level (log10 ratio to DMSO vehicle control); higher = higher biomarker level / cell amount than vehicle control
Details in all cases: in DMSO
Perfluorooctanamidine = compound: N=C(N)C(F)(F)C(F)(F)C(F)(F)C(F)(F)C(F)(F)C(F)(F)C(F)(F)F [Perfluorooctanamidine]
Description: (§1)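 BioMAP Diversity Plus panel of 12 human primary cell co-culture systems (3C, 4H, LPS, SAg, BT, BF4T, BE3C, CASM3C, HDF3CGF, KF3CT, MyoF, Mphg). Compounds were added 1 h before stimulation and left for 24 h (MyoF 48 h; BT 72 h for soluble read-outs or 6 d for IgG). Biomarkers were read by ELISA, cytotoxicity by SRB, PBMC viability and proliferation by Alamar Blue. Each well value was divided by the mean of 8 DMSO control wells on the same plate and log10 transformed; duplicate blinded samples were tested at 4 concentrations.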

Perfluorohexanoic acid = compound: O=C(O)C(F)(F)C(F)(F)C(F)(F)C(F)(F)C(F)(F)F [Perfluorohexanoic acid]
Description: as §1

[1] = compound: C=CC(=O)OCCC(F)(F)C(F)(F)C(F)(F)C(F)(F)F [2-(Perfluorobutyl)ethyl acrylate]
Description: as §1

Row | Test System | level (log10) (Perfluorooctanamidine; 6700 nM) | level (log10) (Perfluorooctanamidine; 20000 nM) | level (log10) (Perfluorooctanamidine; 60000 nM) | level (log10) (Perfluorohexanoic acid; 6700 nM) | level (log10) (Perfluorohexanoic acid; 20000 nM) | level (log10) (Perfluorohexanoic acid; 60000 nM) | level (log10) ([1]; 6700 nM) | level (log10) ([1]; 20000 nM) | level (log10) ([1]; 60000 nM)
1 | KF3CT:TIMP-2 | 0.01 ± 0.0014 | 0 ± 0.02 | 0.035 | 0.004 ± 0.016 | -0.0125 ± 0.0035 | -0.0125 ± 0.0078 | 0.0145 ± 0.0021 | -0.0175 ± 0.0078 | -0.009 ± 0.023
2 | KF3CT:uPA | 0.0015 ± 0.0021 | 0.0165 ± 0.0035 | 0.01 | 0.0125 ± 0.0064 | -0.004 ± 0.0085 | 0.016 ± 0.0099 | -0.012 ± 0.0099 | 0.0155 ± 0.00071 | -0.0225 ± 0.00071
3 | MyoF:CD106/VCAM-1 | 0.0115 ± 0.026 | -0.002 ± 0.018 | 0.011 | 0.002 ± 0.0057 | 0.002 ± 0.0071 | -0.0095 ± 0.013 | -0.019 ± 0.0085 | -0.044 ± 0.027 | -0.101 ± 0.045
4 | MyoF:CXCL8/IL-8 | -0.003 ± 0.041 | 0.03 ± 0.0099 | 0.043 | -0.0015 ± 0.016 | -0.0075 ± 0.026 | -0.015 ± 0.05 | -0.0045 ± 0.0078 | -0.0025 ± 0.016 | 0.02 ± 0.025
5 | MyoF:Collagen I | -0.0005 ± 0.013 | 0.007 ± 0.0085 | 0.047 | -0.01 ± 0.0057 | -0.0095 ± 0.0092 | -0.0025 ± 0.011 | 0.0105 ± 0.016 | 0.01 ± 0.03 | -0.002 ± 0.025
6 | MyoF:Collagen III | -0.0045 ± 0.015 | 0.003 ± 0.017 | 0.006 | 0.0075 ± 0.012 | 0.003 ± 0.02 | 0.0105 ± 0.0092 | -0.009 ± 0.016 | -0.006 ± 0.0028 | -0.0265 ± 0.013
7 | MyoF:Collagen IV | 0.0195 ± 0.03 | 0.044 ± 0.018 | 0.117 | 0.0245 ± 0.0064 | 0.0165 ± 0.0064 | 0.0345 ± 0.037 | 0.0195 ± 0.0078 | -0.0085 ± 0.012 | 0.0295 ± 0.035
8 | MyoF:Decorin | 0.004 ± 0.0099 | 0.0055 ± 0.013 | 0.07 | -0.0215 ± 0.015 | 0.0005 ± 0.023 | 0.024 ± 0.013 | 0.0005 ± 0.016 | 0.004 ± 0.016 | 0.022 ± 0.037
9 | MyoF:MMP-1 | -0.025 ± 0.024 | -0.01 | 0.062 | -0.0115 ± 0.0035 | -0.0055 ± 0.019 | 0.0235 ± 0.025 | 0.0005 ± 0.0092 | 0.024 ± 0.017 | 0.0405 ± 0.012
10 | MyoF:PAI-I | 0.0015 ± 0.0064 | -0.0075 ± 0.013 | 0.021 | 0.0025 ± 0.005 | 0.002 ± 0.0028 | 0.009 | -0.003 ± 0.0071 | 0.001 ± 0.023 | 0.0005 ± 0.018
11 | MyoF:SRB | 0.007 ± 0.0028 | -0.003 ± 0.0042 | 0.013 | 0.009 ± 0.0014 | 0.008 ± 0.0085 | 0.007 ± 0.0057 | -0.001 ± 0.0099 | -0.004 ± 0.011 | -0.0085 ± 0.00071
12 | MyoF:TIMP-1 | 0.0185 ± 0.011 | 0.041 | 0.123 | 0.0085 ± 0.0021 | -0.006 ± 0.0042 | 0.0245 ± 0.0064 | -0.031 ± 0.048 | 0.0025 ± 0.018 | 0.016 ± 0.042
13 | MyoF:alpha-SM Actin | 0.0015 ± 0.054 | -0.009 ± 0.042 | 0.066 | -0.021 ± 0.016 | 0.011 ± 0.0099 | 0.013 ± 0.037 | -0.0075 ± 0.0078 | -0.0325 ± 0.00071 | -0.0665 ± 0.00071
14 | MyoF:bFGF | -0.0085 ± 0.032 | -0.0115 ± 0.03 | 0.044 | 0.0005 ± 0.005 | -0.0105 ± 0.019 | 0.0005 ± 0.021 | -0.0035 ± 0.0021 | -0.003 ± 0.0042 | 0.02 ± 0.011
15 | lMphg:CCL2/MCP-1 | -0.03 ± 0.016 | -0.006 ± 0.0085 | 0.021 | -0.0065 ± 0.028 | -0.021 ± 0.0099 | -0.014 ± 0.041 | -0.0335 ± 0.0078 | -0.0445 ± 0.0078 | -0.012 ± 0.04
16 | lMphg:CCL3/MIP-1alpha | -0.029 ± 0.03 | 0.0015 ± 0.035 | 0.055 | 0.006 | -0.009 ± 0.011 | 0.0025 ± 0.011 | -0.0105 ± 0.0064 | -0.0115 ± 0.029 | 0.021 ± 0.013
17 | lMphg:CD40 | -0.016 ± 0.023 | -0.0145 ± 0.005 | -0.046 | 0.0105 ± 0.0078 | 0.016 ± 0.02 | -0.008 ± 0.0028 | -0.002 | -0.0165 ± 0.0064 | -0.0255 ± 0.0064
18 | lMphg:CD62E/E-Selectin | 0.0065 ± 0.042 | 0.0655 ± 0.015 | 0.049 | 0.0025 ± 0.016 | 0 ± 0.0014 | -0.014 ± 0.0042 | 0.01 ± 0.0071 | -0.006 ± 0.0099 | 0.001 ± 0.0042
19 | lMphg:CD69 | -0.048 ± 0.0028 | -0.052 ± 0.0085 | 0.029 | 0.005 ± 0.035 | -0.003 ± 0.0071 | -0.017 ± 0.0042 | -0.0065 ± 0.016 | -0.006 ± 0.011 | -0.024 ± 0.0057
20 | lMphg:CD106/VCAM-1 | -0.006 ± 0.0028 | -0.008 ± 0.0057 | -0.08 | 0.0065 ± 0.016 | -0.0055 ± 0.011 | 0.0005 ± 0.018 | -0.009 ± 0.0099 | -0.0035 ± 0.028 | -0.0405 ± 0.037
21 | lMphg:CXCL8/IL-8 | 0.011 | 0.0425 ± 0.019 | 0.175 | 0.045 ± 0.024 | 0.0515 ± 0.036 | 0.074 ± 0.023 | 0.013 ± 0.014 | 0.0045 ± 0.0021 | 0.0055 ± 0.0078
22 | lMphg:IL-1alpha | -0.011 ± 0.024 | -0.004 ± 0.044 | 0.027 | 0.0035 ± 0.04 | 0 ± 0.011 | -0.009 ± 0.033 | -0.026 ± 0.028 | -0.033 ± 0.0028 | 0.0145 ± 0.04
23 | lMphg:M-CSF | -0.0155 ± 0.016 | -0.0015 ± 0.0021 | -0.001 | 0.0005 ± 0.028 | -0.011 ± 0.028 | -0.023 ± 0.0014 | -0.0155 ± 0.029 | -0.011 ± 0.028 | -0.001 ± 0.018
24 | lMphg:SRB | -0.006 ± 0.016 | 0.004 ± 0.016 | 0.001 | -0.019 ± 0.0085 | -0.0175 ± 0.0064 | -0.006 ± 0.0085 | 0.0085 ± 0.0078 | -0.0095 ± 0.0064 | -0.0155 ± 0.012
25 | lMphg:SRB-Mphg | 0.0145 ± 0.011 | 0.009 ± 0.014 | 0.007 | -0.0005 ± 0.011 | 0.003 ± 0.0071 | 0.0115 ± 0.0035 | 0.012 ± 0.011 | 0.0075 ± 0.016 | -0.006 ± 0.021
26 | lMphg:sIL-10 | -0.051 ± 0.018 | -0.118 ± 0.0057 | -0.121 | -0.0285 ± 0.0092 | -0.0375 ± 0.046 | -0.0945 ± 0.021 | -0.0435 ± 0.011 | -0.07 ± 0.021 | -0.0715 ± 0.054
